The values below are quoted from earlier work in patent publication US20140243296A1, “Organic Compounds” (Jagotec AG, priority 2011, published 2014).

The conditions of data set [1]: qualitative.
The target in a further data set is CYP 3A4 isoform (Homo sapiens, UniProt P08684). The conditions noted are these: qualitative, prior-art knowledge.
The next data set addresses P-glycoprotein (Pgp) (Homo sapiens, UniProt P08183). The conditions noted are these: qualitative, prior-art knowledge.

Sequence of CYP 3A4 isoform (P08684 whole entry, canonical isoform): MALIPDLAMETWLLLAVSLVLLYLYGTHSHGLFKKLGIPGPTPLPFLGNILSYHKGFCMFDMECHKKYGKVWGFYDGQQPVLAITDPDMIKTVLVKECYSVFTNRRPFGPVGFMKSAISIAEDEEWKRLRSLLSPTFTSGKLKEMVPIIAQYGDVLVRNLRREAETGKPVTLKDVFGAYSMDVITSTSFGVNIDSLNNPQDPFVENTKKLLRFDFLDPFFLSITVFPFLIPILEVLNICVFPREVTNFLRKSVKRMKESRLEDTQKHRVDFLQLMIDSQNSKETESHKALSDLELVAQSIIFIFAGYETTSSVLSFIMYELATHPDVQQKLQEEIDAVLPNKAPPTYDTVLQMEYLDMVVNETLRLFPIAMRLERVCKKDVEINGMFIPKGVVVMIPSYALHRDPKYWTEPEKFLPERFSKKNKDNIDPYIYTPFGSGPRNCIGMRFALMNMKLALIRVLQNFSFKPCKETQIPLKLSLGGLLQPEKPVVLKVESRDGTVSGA
Sequence of P-glycoprotein (Pgp) (P08183 whole entry): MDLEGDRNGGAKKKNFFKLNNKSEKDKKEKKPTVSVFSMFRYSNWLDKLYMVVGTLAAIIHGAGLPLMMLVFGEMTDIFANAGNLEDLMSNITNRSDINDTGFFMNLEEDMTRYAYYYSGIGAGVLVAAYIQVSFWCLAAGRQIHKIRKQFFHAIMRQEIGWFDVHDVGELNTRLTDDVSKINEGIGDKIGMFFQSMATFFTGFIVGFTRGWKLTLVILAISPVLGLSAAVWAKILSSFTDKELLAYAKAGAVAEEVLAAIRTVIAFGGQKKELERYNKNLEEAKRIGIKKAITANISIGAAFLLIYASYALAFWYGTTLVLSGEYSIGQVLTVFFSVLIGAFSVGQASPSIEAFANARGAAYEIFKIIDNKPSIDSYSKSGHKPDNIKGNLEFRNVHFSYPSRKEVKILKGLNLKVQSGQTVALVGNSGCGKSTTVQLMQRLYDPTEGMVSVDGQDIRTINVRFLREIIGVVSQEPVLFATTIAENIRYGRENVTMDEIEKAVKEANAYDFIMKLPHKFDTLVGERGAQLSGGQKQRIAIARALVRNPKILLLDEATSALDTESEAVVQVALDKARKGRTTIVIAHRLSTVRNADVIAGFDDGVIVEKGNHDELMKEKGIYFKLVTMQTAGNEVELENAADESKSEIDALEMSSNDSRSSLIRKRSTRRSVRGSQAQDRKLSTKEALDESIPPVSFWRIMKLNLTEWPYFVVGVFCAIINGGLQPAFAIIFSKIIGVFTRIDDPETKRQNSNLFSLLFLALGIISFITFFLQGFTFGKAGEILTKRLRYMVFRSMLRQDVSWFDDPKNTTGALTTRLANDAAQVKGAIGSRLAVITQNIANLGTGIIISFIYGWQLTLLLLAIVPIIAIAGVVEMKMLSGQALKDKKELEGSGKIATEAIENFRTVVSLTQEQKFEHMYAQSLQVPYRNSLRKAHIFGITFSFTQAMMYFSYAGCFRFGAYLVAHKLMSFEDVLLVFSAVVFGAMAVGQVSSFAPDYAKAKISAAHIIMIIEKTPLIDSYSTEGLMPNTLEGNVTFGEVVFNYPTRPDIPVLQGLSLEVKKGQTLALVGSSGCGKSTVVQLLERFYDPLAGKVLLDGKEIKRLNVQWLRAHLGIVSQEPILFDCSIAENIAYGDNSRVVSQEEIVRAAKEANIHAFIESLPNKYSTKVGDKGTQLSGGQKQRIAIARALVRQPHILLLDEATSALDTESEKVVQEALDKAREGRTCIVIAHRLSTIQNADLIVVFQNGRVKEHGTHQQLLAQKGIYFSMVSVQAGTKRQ

On to `CC(C)CN(C[C@@H](O)[C@H](Cc1ccccc1)NC(=O)O[C@H]1CO[C@H]2OCC[C@H]21)S(=O)(=O)c1ccc(N)cc1` [Darunavir, darunavir], for which the solubility entry in data set [1] is given as “poorly soluble”.

As to `CC(C)CN(C[C@@H](O)[C@H](Cc1ccccc1)NC(=O)O[C@H]1CCOC1)S(=O)(=O)c1ccc(N)cc1` [amprenavir], the “inhibition of / affinity towards CYP, particularly CYP 3A4 isoform” value (from here on “inhibition of / affinity towards CYP”) at CYP 3A4 isoform is on record as “weak inhibitors”.

For `CC(C)(C)NC(=O)[C@@H]1CN(Cc2cccnc2)CCN1C[C@@H](O)C[C@@H](Cc1ccccc1)C(=O)N[C@H]1c2ccccc2C[C@H]1O` [indinavir], at P-glycoprotein (Pgp), the “inhibitory effect on / affinity for Pgp” value is recorded as “substantially no inhibitory effect”.

Consider `Cc1c(O)cccc1C(=O)N[C@@H](CSc1ccccc1)[C@H](O)CN1C[C@H]2CCCC[C@H]2C[C@H]1C(=O)NC(C)(C)C` [nelfinavir], for which the “inhibition of / affinity towards CYP” value at CYP 3A4 isoform is “modest inhibition”.

In the case of `CC(C)(C)NC(=O)[C@@H]1C[C@@H]2CCCC[C@@H]2CN1C[C@@H](O)[C@H](Cc1ccccc1)NC(=O)[C@H](CC(N)=O)NC(=O)c1ccc2ccccc2n1` [saquinavir], the “inhibition of / affinity towards CYP” value at CYP 3A4 isoform is listed as “weak inhibitors”.
